# Laboratory results taken from PubChem BioAssay (NCI).
#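 These data come from cells grown in 96-well plates and exposed to compound for 48 hours at five concentrations. GI50 marks 50% less growth. The concentration for full growth arrest is given as TGI.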
# How the values were obtained:
# Test in all cases: growth of human tumour cells (NCI), 48 h
# 786-0 renal = test system: 786-0 renal
# A498 renal = test system: A498 renal
# A549 NSCLC = test system: A549 NSCLC
# ACHN renal = test system: ACHN renal
# BT-549 breast = test system: BT-549 breast
# CAKI-1 renal = test system: CAKI-1 renal
# CCRF-CEM leukemia = test system: CCRF-CEM leukemia
# COLO 205 colon = test system: COLO 205 colon
# DU-145 prostate = test system: DU-145 prostate
# EKVX NSCLC = test system: EKVX NSCLC
# HCC-2998 colon = test system: HCC-2998 colon
# HCT-116 colon = test system: HCT-116 colon
# HCT-15 colon = test system: HCT-15 colon
# HL-60(TB) leukemia = test system: HL-60(TB) leukemia
# HOP-62 NSCLC = test system: HOP-62 NSCLC
# HOP-92 NSCLC = test system: HOP-92 NSCLC
# HS 578T breast = test system: HS 578T breast
# HT29 colon = test system: HT29 colon
# IGROV1 ovarian = test system: IGROV1 ovarian
# K-562 leukemia = test system: K-562 leukemia
# KM12 colon = test system: KM12 colon
# LOX IMVI melanoma = test system: LOX IMVI melanoma
# M14 melanoma = test system: M14 melanoma
# MALME-3M melanoma = test system: MALME-3M melanoma
# MCF7 breast = test system: MCF7 breast
# MDA-MB-231 breast = test system: MDA-MB-231 breast
# MDA-MB-435 = test system: MDA-MB-435
# MOLT-4 leukemia = test system: MOLT-4 leukemia
# NCI-H226 lung = test system: NCI-H226 lung
# NCI-H23 lung = test system: NCI-H23 lung
# NCI-H460 lung = test system: NCI-H460 lung
# NCI-H522 lung = test system: NCI-H522 lung
# NCI/ADR-RES ovarian = test system: NCI/ADR-RES ovarian
# OVCAR-3 ovarian = test system: OVCAR-3 ovarian
# OVCAR-4 ovarian = test system: OVCAR-4 ovarian
# OVCAR-5 ovarian = test system: OVCAR-5 ovarian
# OVCAR-8 ovarian = test system: OVCAR-8 ovarian
# PC-3 prostate = test system: PC-3 prostate
# RPMI-8226 leukemia = test system: RPMI-8226 leukemia
# RXF 393 renal = test system: RXF 393 renal
# SF-268 CNS = test system: SF-268 CNS
# SF-295 CNS = test system: SF-295 CNS
# SF-539 CNS = test system: SF-539 CNS
# SK-MEL-2 melanoma = test system: SK-MEL-2 melanoma
# SK-MEL-28 melanoma = test system: SK-MEL-28 melanoma
# SK-MEL-5 melanoma = test system: SK-MEL-5 melanoma
# SK-OV-3 ovarian = test system: SK-OV-3 ovarian
# SN12C renal = test system: SN12C renal
# SNB-19 CNS = test system: SNB-19 CNS
# SNB-75 CNS = test system: SNB-75 CNS
# SR leukemia = test system: SR leukemia
# SW-620 colon = test system: SW-620 colon
# T-47D breast = test system: T-47D breast
# TK-10 renal = test system: TK-10 renal
# U251 CNS = test system: U251 CNS
# UACC-257 melanoma = test system: UACC-257 melanoma
# UACC-62 melanoma = test system: UACC-62 melanoma
# UO-31 renal = test system: UO-31 renal
smiles,measurement,setting,value
C=C1CCC2C3(C)COC(c4ccccc4Br)OC3CCC2(C)C1C/C=C1/C(=O)OCC1OC(C)=O (stereo unspecified),GI50,786-0 renal,1630 nM
same,TGI,786-0 renal,2980 nM
same,GI50,A498 renal,1600 nM
same,TGI,A498 renal,3.91 µM
same,GI50,A549 NSCLC,2060 nM
same,TGI,A549 NSCLC,5.26 µM
same,GI50,ACHN renal,1600 nM
same,TGI,ACHN renal,2960 nM
same,GI50,BT-549 breast,1700 nM
same,TGI,BT-549 breast,3.71 µM
same,GI50,CAKI-1 renal,2400 nM
same,TGI,CAKI-1 renal,6.46 µM
same,GI50,CCRF-CEM leukemia,381 nM
same,TGI,CCRF-CEM leukemia,3.96 µM
same,GI50,COLO 205 colon,1660 nM
same,TGI,COLO 205 colon,3.2 µM
same,GI50,DU-145 prostate,1580 nM
same,TGI,DU-145 prostate,2990 nM
same,GI50,EKVX NSCLC,2550 nM
same,TGI,EKVX NSCLC,10.1 µM
same,GI50,HCC-2998 colon,1730 nM
same,TGI,HCC-2998 colon,3.31 µM
same,GI50,HCT-116 colon,289 nM
same,TGI,HCT-116 colon,751 nM
same,GI50,HCT-15 colon,730 nM
same,TGI,HCT-15 colon,2250 nM
same,GI50,HL-60(TB) leukemia,708 nM
same,TGI,HL-60(TB) leukemia,2980 nM
same,GI50,HOP-62 NSCLC,1940 nM
same,TGI,HOP-62 NSCLC,3.46 µM
same,GI50,HOP-92 NSCLC,1360 nM
same,TGI,HOP-92 NSCLC,3.02 µM
same,GI50,HS 578T breast,1890 nM
same,TGI,HS 578T breast,4.65 µM
same,GI50,HT29 colon,804 nM
same,TGI,HT29 colon,2370 nM
same,GI50,IGROV1 ovarian,1150 nM
same,TGI,IGROV1 ovarian,2480 nM
same,GI50,K-562 leukemia,396 nM
same,TGI,K-562 leukemia,4.4 µM
same,GI50,KM12 colon,1550 nM
same,TGI,KM12 colon,3.12 µM
same,GI50,LOX IMVI melanoma,422 nM
same,TGI,LOX IMVI melanoma,826 nM
same,GI50,M14 melanoma,1530 nM
same,TGI,M14 melanoma,2860 nM
same,GI50,MALME-3M melanoma,1920 nM
same,TGI,MALME-3M melanoma,4.12 µM
same,GI50,MCF7 breast,620 nM
same,TGI,MCF7 breast,2000 nM
same,GI50,MDA-MB-231 breast,1470 nM
same,TGI,MDA-MB-231 breast,3.16 µM
same,GI50,MDA-MB-435,1480 nM
same,TGI,MDA-MB-435,3.5 µM
same,GI50,MOLT-4 leukemia,821 nM
same,TGI,MOLT-4 leukemia,2910 nM
same,GI50,NCI-H226 lung,1640 nM
same,TGI,NCI-H226 lung,3.42 µM
same,GI50,NCI-H23 lung,1590 nM
same,TGI,NCI-H23 lung,3.17 µM
same,GI50,NCI-H460 lung,1740 nM
same,TGI,NCI-H460 lung,3.29 µM
same,GI50,NCI-H522 lung,604 nM
same,TGI,NCI-H522 lung,2030 nM
same,GI50,NCI/ADR-RES ovarian,1180 nM
same,TGI,NCI/ADR-RES ovarian,3.12 µM
same,GI50,OVCAR-3 ovarian,932 nM
same,TGI,OVCAR-3 ovarian,2470 nM
same,GI50,OVCAR-4 ovarian,1430 nM
same,TGI,OVCAR-4 ovarian,2830 nM
same,GI50,OVCAR-5 ovarian,1850 nM
same,TGI,OVCAR-5 ovarian,3.28 µM
same,GI50,OVCAR-8 ovarian,584 nM
same,TGI,OVCAR-8 ovarian,1800 nM
same,GI50,PC-3 prostate,1630 nM
same,TGI,PC-3 prostate,3.76 µM
same,GI50,RPMI-8226 leukemia,645 nM
same,TGI,RPMI-8226 leukemia,6.52 µM
same,GI50,RXF 393 renal,1540 nM
same,TGI,RXF 393 renal,2960 nM
same,GI50,SF-268 CNS,1650 nM
same,TGI,SF-268 CNS,3.01 µM
same,GI50,SF-295 CNS,1820 nM
same,TGI,SF-295 CNS,4.57 µM
same,GI50,SF-539 CNS,1530 nM
same,TGI,SF-539 CNS,2860 nM
same,GI50,SK-MEL-2 melanoma,1720 nM
same,TGI,SK-MEL-2 melanoma,3.4 µM
same,GI50,SK-MEL-28 melanoma,1760 nM
same,TGI,SK-MEL-28 melanoma,3.15 µM
same,GI50,SK-MEL-5 melanoma,1600 nM
same,TGI,SK-MEL-5 melanoma,2980 nM
same,GI50,SK-OV-3 ovarian,2850 nM
same,TGI,SK-OV-3 ovarian,6.78 µM
same,GI50,SN12C renal,1360 nM
same,TGI,SN12C renal,3.28 µM
same,GI50,SNB-19 CNS,2250 nM
same,TGI,SNB-19 CNS,5.85 µM
same,GI50,SNB-75 CNS,1170 nM
same,TGI,SNB-75 CNS,2460 nM
same,GI50,SR leukemia,215 nM
same,TGI,SR leukemia,706 nM
same,GI50,SW-620 colon,402 nM
same,TGI,SW-620 colon,1300 nM
same,GI50,T-47D breast,1080 nM
same,TGI,T-47D breast,2770 nM
same,GI50,TK-10 renal,1910 nM
same,TGI,TK-10 renal,3.67 µM
same,GI50,U251 CNS,1220 nM
same,TGI,U251 CNS,2460 nM
same,GI50,UACC-257 melanoma,1570 nM
same,TGI,UACC-257 melanoma,2990 nM
same,GI50,UACC-62 melanoma,1420 nM
same,TGI,UACC-62 melanoma,2860 nM
same,GI50,UO-31 renal,1340 nM
same,TGI,UO-31 renal,2720 nM
